From patent US8263589B2, “Inhibitors of protein aggregation” (Wista Laboratories Ltd., priority 2006, dated 2012)
Where two headings read alike, the source gives them in different places.

Experiments:
[1] = target: T1, α-synuclein (fsyn binding to solid phase tsyn) (Homo sapiens, UniProt P37840); test: Solid phase ELISA assay for synuclein-synuclein binding
T1 construct: full-length α-synuclein (fsyn) was added in the aqueous phase; The core aggregation domain of α-synuclein (amino acids 31-109) was expressed with an N-terminal polyhistidine tag; polyhistidine (N); made in house; host or cells: E. coli
Procedure: A solid phase assay was used to measure self-association of α-synuclein. tsyn diluted in carbonate buffer (pH 8.5) was bound to the assay plate, and full-length α-synuclein (fsyn) was added in the aqueous phase. The aqueous phase binding buffer was 50 mM Na-phosphate, pH 6.0, 20 mM NaCl, 0.05% Tween-20, 1% fish skin gelatine.
The two α-synuclein proteins were also used in a binding assay. The tsyn is bound in the solid phase, and full-length fsyn is added in the aqueous phase. […]

[2] = target: T2, assembled tsyn (core aggregation domain of α-synuclein, amino acids 31-109) (Homo sapiens, UniProt P37840); test: Fluorescence assay of disruption of assembled tsyn (thioflavine T / primulin); assay type: biochemical
T2 construct: The core aggregation domain of α-synuclein (amino acids 31-109) was expressed with an N-terminal polyhistidine tag; polyhistidine (N); made in house; host or cells: E. coli
Procedure: (§1) α-Synuclein proteins (tsyn or fsyn) were incubated at 37° C. for the times indicated in Figure legends with mixing to induce fibril formation. In some cases, 50 μg/ml heparin was included to enhance fibril formation.
(§2) Samples of 10 μl were then diluted to 100 μl with water, plus thioflavine T or primulin at 1 μM, or 0.2 or 5 μM in some cases. Fluorescence excitation spectra were measured in 96 well plates in a Varian Carey Eclipse Fluorescence Spectrophotometer, with the emission wavelength at 480 nm. Excitation spectra were corrected for the signal measured without tsyn and the peak signal measured from the spectra. The data were normalised to the value measured without compound and P50 values measured from plots of normalised fluorescence against concentration of compound.
The effect of the compounds on thioflavine T and primulin fluorescence could be due to competition for the fluorescence ligand rather than disruption of the fibrils. To test this, the experiment was done at three different concentrations of fluorophore, since the P50 will be dependent on fluorophore concentration only if the effect is due to competition.

[3] = tested on: NIE cells
[4] = target: α-synuclein (SSFsyn) in NIE-115 cells (Homo sapiens, UniProt P37840); test: Cell based assay for α-synuclein aggregation (SSFsyn in NIE-115 cells differentiated with dbcAMP, immunoblot mAb 42); design: species or system mouse; settings: for EC50: ratio of α-synuclein to non-specific band falls to 50% of dbcAMP alone, immunoblot mAb 42, read-out: EC50, inhibition of FSyn expression in NIE cells differentiated with dbcAMP
Procedure: The cell based assay employed a mouse neuroblastoma cell line NIE-115 that had been engineered to express full-length α-synuclein incorporating an N-terminal signal sequence (SSfsyn) to target incorporation of the protein into the membrane (see WO02/059150). When the cells were differentiated with dibutyryl cyclicAMP (dbcAMP) (1 mM) expression of the α-synuclein protein was increased.
α-synuclein protein was detected by immunoblot using various anti-α-synuclein antibodies. These included: mAb 42 (BD Biosciences Cat No. 610787) that recognises an epitope within tsyn (residues 31-109 of α-synuclein). In addition to α-synuclein, mAb 42 also reacts non-specifically with a protein of higher molecular mass (the protein is not recognised by other anti-α-synuclein antibodies). This protein was used as an estimate of cell numbers as the level of this protein in cells correlates with cell density. Drugs were tested with these cells and an inhibitory activity (EC50) was calculated by determining the drug concentration in which the ratio of α-synuclein to the non-specific band fell to 50% of the value for cells treated with dbcAMP alone.
The timing of the addition of the dbcAMP and drug was varied and the length of time that the cells are left in the presence of drug+dbcAMP before collecting cells was also be varied.

[5] = tested on: parkinsonian tremor; settings: cited from earlier work
[6] = target: T3, assembled fsyn (full-length α-synuclein) (Homo sapiens, UniProt P37840); test: Fluorescence assay of disruption of assembled fsyn (thioflavine T / primulin); assay type: biochemical; settings: assembled 47 h with heparin, compound 1 h, read-out: P50 for inhibition of α-synuclein-dependent fluorescence
T3 construct: Full-length α-synuclein (syn) was expressed without a tag, and purified by ion exchange chromatography; made in house; host or cells: E. coli
Procedure: as §1, §2

[7] = 1 μM tsyn-16 (solid phase), 5 μM fsyn-20 (aqueous phase), 50 mM sodium phosphate pH 6.0, 20 mM NaCl, read-out: B50 (μM) in α-synuclein binding assay
[8] = tsyn-16 assembled with heparin (50 μg/ml), primulin 1 μM, mean ± SEM (n), read-out: P50 (μM) using primulin
[9] = tsyn-16 assembled with heparin (50 μg/ml), thioflavine T 1 μM, mean ± SEM (n), read-out: P50 (μM) using thioflavone T
[10] = assembled tsyn, primulin 0.2 μM, read-out: P50 (mean), effect of fluorophore concentration
[11] = assembled tsyn, primulin 1.0 μM, read-out: P50 (mean), effect of fluorophore concentration
[12] = assembled tsyn, primulin 5.0 μM, read-out: P50 (mean), effect of fluorophore concentration
[13] = assembled tsyn, thioflavine T 0.2 μM, read-out: P50 (mean), effect of fluorophore concentration
[14] = assembled tsyn, thioflavine T 1.0 μM, read-out: P50 (mean), effect of fluorophore concentration
[15] = assembled tsyn, thioflavine T 5.0 μM, read-out: P50 (mean), effect of fluorophore concentration
[16] = tsyn-13, primulin 1 μM, assembled 20 h with heparin, compound 1 h, read-out: P50 for inhibition of α-synuclein-dependent fluorescence
[17] = tsyn-13, thioflavine T 1 μM, assembled 20 h with heparin, compound 1 h, read-out: P50 for inhibition of α-synuclein-dependent fluorescence

Row | Compound | activity in the synuclein-synuclein binding assay [1] | IC50 [1, 7] | IC50 [2, 8] | IC50 [2, 9] | LD50 [3] | EC50 [4] | also measured
1 | Cc1cc(N(C)C)cc2[s+]c3cc(N(C)C)cc(C)c3nc12 [DMMTC, 1,9-Dimethyl-methyl-thioninium chloride] | active | 4.9 µM | 20.7 ± 7.8 µM | 0.2 µM | 1.2 µM | 0.1 ± 0.02 µM | –
2 | CN(C)c1ccc2nc3ccc(N)cc3[s+]c2c1 [Azure A, reference compound] | inactive | > 500 µM | 17.9 ± 2 µM | 3.8 ± 0.9 µM | 8.8 µM | 0.32 µM | –
3 | Cc1c(-c2ccccc2)oc2cc(O)ccc2c1=O [7-hydroxy-3-methyl-flavone, reference compound] | – | 141 µM | – | – | – | – | –
4 | CNc1ccc2nc3ccc(N(C)C)cc3[s+]c2c1 [Azure B, reference compound] | inactive | > 500 µM | – | – | 0.8 µM | 0.25 µM | –
5 | COc1cc(O)c2c(=O)c(O)c(-c3ccc(O)c(O)c3)oc2c1 [Rhamnetin, reference compound] | – | 11.4 ± 9.7 µM | 34.7 µM | 39.4 µM | 31 µM | – | inhibitory activity in the cell based assay ([4]; NIE-115 SSFsyn cells with dbcAMP): inhibitory
6 | O=c1c(O)c(-c2ccc(O)c(O)c2)oc2cc(O)ccc12 [Fisetin, reference compound] | – | 88.2 µM | – | – | – | – | –
7 | Cc1cc2nc3ccc(N(C)C)cc3[s+]c2cc1N [Tolonium chloride, Tolonium Chloride] | active | 3.3 ± 0.3 µM | 8.8 ± 3.3 µM | 1.5 ± 0.2 µM | 1.2 µM | – | –
8 | COc1cc(-c2oc3cc(O)ccc3c(=O)c2O)ccc1O [Geraldol, reference compound] | – | 60.8 µM | > 50 µM | > 50 µM | – | – | –
9 | O=c1c(O)c(-c2cc(O)c(O)c(O)c2)oc2cc(O)ccc12 [Robinetin, reference compound] | – | 39.2 µM | 27.6 µM | 21.1 µM | – | – | –
10 | CN(C)c1ccc2nc3ccc(N(C)C)cc3[s+]c2c1 [MTC, methyl-thioninium chloride] | active | 131 ± 15 µM | 30.4 ± 3 µM | 15.4 ± 3.7 µM | – | – | IC50 [2, 10]: 41.7 µM; IC50 [2, 11]: 35.1 µM; IC50 [2, 12]: 31.2 µM; IC50 [2, 13]: 11.6 µM; IC50 [2, 14]: 12.7 µM; IC50 [2, 15]: 20.2 µM; IC50 [2, 16]: 12.9 µM; IC50 [2, 17]: 18.5 µM; tolerability of oral administration ([5]; oral 8 grains (=518 mg)/day): discontinued due to side effects; IC50 ([6]; fsyn-14, primulin): 23.5 µM; IC50 ([6]; fsyn-14, thioflavine T): 3.8 µM
11 | CCc1cc(N(C)C)cc2[s+]c3cc(N(C)C)cc(CC)c3nc12 [DEMTC, 1,9-Diethyl-methyl-thioninium chloride] | active | 0.8 ± 0.4 µM | – | – | 3 µM | – | –
12 | O=c1cc(-c2ccccc2)oc2cc(O)c(O)c(O)c12 [Baicalein, reference compound] | – | 2.5 µM | 28.2 µM | 47.6 µM | – | – | –
13 | CCN(CC)c1cc(C)c2nc3c(C)cc(N(CC)CC)cc3[s+]c2c1 [DMETC] | active | 0.5 ± 0.1 µM | 5 ± 0.9 µM | 0.9 ± 0.2 µM | 6 µM | 0.05 ± 0.04 µM | –
14 | CCc1cc(N(CC)CC)cc2[s+]c3cc(N(CC)CC)cc(CC)c3nc12 [DEETC, 1,9-Diethyl-ethyl-thioninium chloride] | active | 0.4 µM | – | – | 1.0 µM | 0.004 ± 0.001 µM | –
15 | CCN(CC)c1ccc2nc3ccc(N(CC)CC)cc3[s+]c2c1 [ETC, Ethyl-thioninium chloride] | active | 3.8 ± 0.3 µM | 26 ± 6 µM | 7.3 ± 3.8 µM | 38 µM | 0.08 ± 0.02 µM | IC50 [2, 10]: 41.7 µM; IC50 [2, 11]: 34 µM; IC50 [2, 12]: 32.3 µM; IC50 [2, 13]: 3.2 µM; IC50 [2, 14]: 9 µM; IC50 [2, 15]: 17.6 µM; IC50 [2, 16]: 24.1 µM; IC50 [2, 17]: 30.3 µM; IC50 ([6]; fsyn-14, primulin): 30.6 µM; IC50 ([6]; fsyn-14, thioflavine T): 25.3 µM
16 | O=c1c(O)c(-c2ccc(O)c(O)c2)oc2ccccc12 [3,3′,4′-Trihydroxy-flavone, reference compound] | – | 43.1 µM | – | – | – | – | –
17 | Thionine | active | 32.2 ± 11.7 µM | 23 ± 2.2 µM | 3.8 ± 0.3 µM | – | – | effect on Parkinsonian tremor ([5]; 4 individuals, MTC intravenously 1 or 2 mg/kg): gave no result
18 | O=c1cc(-c2ccccc2)oc2cc(O)ccc12 [7-Hydroxy-flavone, reference compound] | – | – | – | – | – | – | IC50 [1]: 35.3 µM; IC50 [2]: > 50 µM; IC50 ([2]; P50 (μM) using primulin, tsyn-16 assembled with heparin (50 μg/ml), primulin 1 μM, mean ± SEM (n)): > 50 µM
